# Data from publication PMC6768983, “Transcriptomic Identification and Biochemical Characterization of HmpA, a Nitric Oxide Dioxygenase, Essential for Pathogenesis of Vibrio vulnificus” (Frontiers in Microbiology, 2019).
# Molecular target: T1, VvHmpA (Vibrio vulnificus, UniProt Q8DCU2)
# T1 construct: gene hmp; reconstituted with heme or FAD
# Test: FAD fluorometric assay after reconstitution
# Assay type: binding
# Settings: 10 μM protein incubated with 80 μM FAD, 1 h, room temperature; stoichiometry, no affinity constant
# T1 sequence (Q8DCU2 whole entry): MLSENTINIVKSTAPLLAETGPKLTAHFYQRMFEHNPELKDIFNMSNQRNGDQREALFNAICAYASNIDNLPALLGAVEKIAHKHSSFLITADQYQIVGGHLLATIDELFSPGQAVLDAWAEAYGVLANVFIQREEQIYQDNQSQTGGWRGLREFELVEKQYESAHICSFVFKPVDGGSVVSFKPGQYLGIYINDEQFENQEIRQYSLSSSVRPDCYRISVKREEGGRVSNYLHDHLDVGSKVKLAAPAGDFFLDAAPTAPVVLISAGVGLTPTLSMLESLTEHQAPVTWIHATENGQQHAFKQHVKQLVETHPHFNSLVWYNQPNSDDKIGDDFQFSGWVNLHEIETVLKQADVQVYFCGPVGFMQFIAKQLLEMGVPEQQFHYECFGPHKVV
smiles,measurement,value
Cc1cc2nc3c(=O)[nH]c(=O)nc-3n(C[C@H](O)[C@H](O)[C@H](O)COP(=O)(O)OP(=O)(O)OC[C@H]3O[C@@H](n4cnc5c(N)ncnc54)[C@H](O)[C@@H]3O)c2cc1C [FAD],molecules of FAD per VvHmpA monomer,0.92 ± 0.12 molecules per monomer
